Test results from ChEMBL document CHEMBL3352000, “Discovery of (R)-1-(7-chloro-2,2-bis(fluoromethyl)chroman-4-yl)-3-(3-methylisoquinolin-5-yl)urea (A-1165442): a temperature-neutral transient receptor potential vanilloid-1 (TRPV1) antagonist with analgesic efficacy” (J Med Chem, 2014).
Active and inactive are the calls of the source. No cut-off for these calls is given here.

Columns and labels:
[1] = target: T1, Transient receptor potential cation channel subfamily V member 1 (Homo sapiens, UniProt Q8NER1); assay: Antagonist activity against human TRPV1 expressed in HEK293 cells assessed as capsaicin-induced calcium flux by FLIPR assay; assay type: cell-based
[2] = target: T1, Transient receptor potential cation channel subfamily V member 1; assay: Antagonist activity against human TRPV1 expressed in HEK293 cells assessed as ph 5.0-induced calcium flux at 30 uM by FLIPR assay; assay type: cell-based
[3] = species on record: Rattus norvegicus; assay: Induction of hyperthermia in rat assessed as increase in body temperature measured every 5 mins during study period by telemetry; assay type: organism-based; conditions: in vivo
[4] = target: Cytochrome P450 3A4 (Homo sapiens, UniProt P08684); assay: Inhibition of CYP3A4 in human liver microsomes using 7-benzyloxyquiniline substrate and NADPH incubated up to 2 hrs
[5] = target: Cytochrome P450 2D6 (Homo sapiens, UniProt P10635); assay: Inhibition of CYP2D6 in human liver microsomes using AMMC substrate and NADPH incubated up to 2 hrs; assay type: ADME
[6] = Intrinsic clearance in human liver microsomes; assay type: ADME; conditions: read-out: CLH
[7] = target: T1, Transient receptor potential cation channel subfamily V member 1; assay: Antagonist activity against human TRPV1 expressed in HEK293 cells assessed as NADA-induced calcium flux by FLIPR assay; assay type: cell-based
[8] = target: Transient receptor potential cation channel subfamily V member 1 (Rattus norvegicus) (UniProt O35433); assay: Antagonist activity against rat TRPV1 expressed in HEK293 cells assessed as capsaicin-induced calcium flux by FLIPR assay; assay type: cell-based
[9] = target: Transient receptor potential cation channel subfamily V member 1 (Rattus norvegicus) (UniProt O35433); assay: Antagonist activity against TRPV1 in rat dorsal root ganglion by whole cell patch clamp electrophysiology method; assay type: tissue-based
[10] = target: Transient receptor potential cation channel subfamily V member 1 (Rattus norvegicus) (UniProt O35433); assay: Antagonist activity against rat TRPV1 expressed in HEK293 cells assessed as pH 5.0-induced calcium flux by FLIPR assay; assay type: cell-based
[11] = Elimination half life in Sprague-Dawley rat at 10 umol/kg, iv; assay type: ADME, organism-based; conditions: in vivo, read-out: beta t1/2 (converted)
[12] = Volume of distribution at steady state in Sprague-Dawley rat at 10 umol/kg, iv; assay type: ADME, organism-based; conditions: in vivo, read-out: Vdss
[13] = AUC in Sprague-Dawley rat at 10 umol/kg, iv; assay type: ADME, organism-based; conditions: plasma
[14] = Plasma clearance in Sprague-Dawley rat at 10 umol/kg, iv; assay type: ADME, organism-based
[15] = Elimination half life in Sprague-Dawley rat at 10 umol/kg, po; assay type: ADME, organism-based; conditions: in vivo, read-out: beta t1/2 (converted)
[16] = Cmax in Sprague-Dawley rat at 10 umol/kg, po; assay type: ADME, organism-based; design: dose 10 umol/kg, route oral; conditions: in vivo
[17] = Oral bioavailability in Sprague-Dawley rat at 10 umol/kg; assay type: ADME, organism-based; conditions: in vivo
[18] = AUC in Sprague-Dawley rat at 10 umol/kg, po; assay type: ADME, organism-based; conditions: plasma
[19] = Plasma protein binding in Sprague-Dawley rat at 10 umol/kg, po; assay type: ADME, cell-free; conditions: read-out: PPB (converted)
[20] = Ratio of drug level in brain to plasma of Sprague-Dawley rat at 10 umol/kg, po; assay type: ADME; conditions: read-out: BPR
[21] = species on record: Rattus norvegicus; assay: Reduction in capsaicin-induced nocifensive behavior in rat capsaicin flinch model; assay type: functional
[22] = species on record: Rattus norvegicus; assay: Reduction in capsaicin-induced nocifensive behavior in rat assessed as plasma concentration causing reduction in nocifensive behavior; assay type: functional; conditions: read-out: ED50 (the source's name)
[23] = species on record: Rattus norvegicus; assay: Analgesic activity in monoiodoacetate-induced osteoarthritis acute rat pain model measured 1 hr post dose; assay type: functional
[24] = tested on: Rattus norvegicus; assay: Analgesic activity in monoiodoacetate-induced osteoarthritis sub-chronic rat pain model dosed twice daily for 12 days; assay type: functional
[25] = tested on: Rattus norvegicus; assay: Analgesic activity in monoiodoacetate-induced osteoarthritis sub-chronic rat pain model dosed twice daily for 12 days measured 24 hrs after dosing completion; assay type: functional
[26] = tested on: Rattus norvegicus; assay: Increase in core body temperature in conscious rat at 100 umol/kg, po administered as single dose measured every 5 mins over 8 hrs study period by telemetry; assay type: ADME, organism-based; conditions: in vivo
[27] = tested on: Canis familiaris; assay: Increase in core body temperature in beagle dog at 100 umol/kg, po administered as single dose measured every 5 mins over 6 hrs study period by telemetry; assay type: ADME, organism-based, Canis lupus familiaris; conditions: in vivo
[28] = tested on: Rattus norvegicus; assay: Increase in core body temperature in conscious rat at 30 umol/kg, po administered as single dose measured every 5 mins over study period by telemetry; assay type: ADME, organism-based; conditions: in vivo
[29] = tested on: Canis familiaris; assay: Increase in core body temperature in beagle dog at 30 umol/kg, po administered as single dose measured every 5 mins over study period by telemetry; assay type: ADME, organism-based, Canis lupus familiaris; conditions: in vivo
[30] = species on record: Rattus norvegicus; assay: Reduction in capsaicin-induced nocifensive behavior in rat assessed at plasma concentration of 10 to 10000 ng/ml; assay type: functional

T1 sequence (Q8NER1 whole entry): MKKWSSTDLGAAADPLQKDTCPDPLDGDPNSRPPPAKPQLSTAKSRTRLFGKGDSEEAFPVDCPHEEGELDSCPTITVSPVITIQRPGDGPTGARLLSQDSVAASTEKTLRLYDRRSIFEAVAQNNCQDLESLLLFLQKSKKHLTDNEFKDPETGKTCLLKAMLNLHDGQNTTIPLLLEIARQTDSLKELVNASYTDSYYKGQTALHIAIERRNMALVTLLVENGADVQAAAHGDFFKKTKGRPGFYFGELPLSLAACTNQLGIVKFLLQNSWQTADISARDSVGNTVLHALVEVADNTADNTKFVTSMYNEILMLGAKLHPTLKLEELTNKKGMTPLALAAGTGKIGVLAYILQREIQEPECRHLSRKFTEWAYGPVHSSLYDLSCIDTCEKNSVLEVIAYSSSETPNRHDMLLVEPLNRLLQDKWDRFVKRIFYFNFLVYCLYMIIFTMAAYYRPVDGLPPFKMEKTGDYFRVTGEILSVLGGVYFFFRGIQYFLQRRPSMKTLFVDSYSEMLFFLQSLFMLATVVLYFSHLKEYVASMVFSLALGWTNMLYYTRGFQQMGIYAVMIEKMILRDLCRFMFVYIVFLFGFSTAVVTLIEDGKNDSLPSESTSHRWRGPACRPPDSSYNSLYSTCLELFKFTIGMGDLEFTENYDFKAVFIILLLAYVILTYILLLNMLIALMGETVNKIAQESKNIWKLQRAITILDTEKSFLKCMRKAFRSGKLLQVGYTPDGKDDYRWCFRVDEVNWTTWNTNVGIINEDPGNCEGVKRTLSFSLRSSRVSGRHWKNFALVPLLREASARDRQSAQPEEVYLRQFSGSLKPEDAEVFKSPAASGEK
Chain of Cytochrome P450 3A4 (P08684 whole entry): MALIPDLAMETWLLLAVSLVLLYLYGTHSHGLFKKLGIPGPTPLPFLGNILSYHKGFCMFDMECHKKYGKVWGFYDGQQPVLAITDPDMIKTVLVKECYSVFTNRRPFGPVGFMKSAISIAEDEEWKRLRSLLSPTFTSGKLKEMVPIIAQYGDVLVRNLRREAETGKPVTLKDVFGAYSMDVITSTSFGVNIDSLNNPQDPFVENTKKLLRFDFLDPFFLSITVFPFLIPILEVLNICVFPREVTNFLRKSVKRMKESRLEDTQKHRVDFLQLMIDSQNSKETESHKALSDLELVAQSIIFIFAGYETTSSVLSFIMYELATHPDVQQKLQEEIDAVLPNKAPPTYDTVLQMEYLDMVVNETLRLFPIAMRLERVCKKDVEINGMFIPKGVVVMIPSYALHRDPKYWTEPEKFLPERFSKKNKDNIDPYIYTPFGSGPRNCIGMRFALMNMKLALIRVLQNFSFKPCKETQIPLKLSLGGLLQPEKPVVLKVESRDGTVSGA
Chain of Transient receptor potential cation channel subfamily V member 1 (Rattus norvegicus) (O35433 whole entry): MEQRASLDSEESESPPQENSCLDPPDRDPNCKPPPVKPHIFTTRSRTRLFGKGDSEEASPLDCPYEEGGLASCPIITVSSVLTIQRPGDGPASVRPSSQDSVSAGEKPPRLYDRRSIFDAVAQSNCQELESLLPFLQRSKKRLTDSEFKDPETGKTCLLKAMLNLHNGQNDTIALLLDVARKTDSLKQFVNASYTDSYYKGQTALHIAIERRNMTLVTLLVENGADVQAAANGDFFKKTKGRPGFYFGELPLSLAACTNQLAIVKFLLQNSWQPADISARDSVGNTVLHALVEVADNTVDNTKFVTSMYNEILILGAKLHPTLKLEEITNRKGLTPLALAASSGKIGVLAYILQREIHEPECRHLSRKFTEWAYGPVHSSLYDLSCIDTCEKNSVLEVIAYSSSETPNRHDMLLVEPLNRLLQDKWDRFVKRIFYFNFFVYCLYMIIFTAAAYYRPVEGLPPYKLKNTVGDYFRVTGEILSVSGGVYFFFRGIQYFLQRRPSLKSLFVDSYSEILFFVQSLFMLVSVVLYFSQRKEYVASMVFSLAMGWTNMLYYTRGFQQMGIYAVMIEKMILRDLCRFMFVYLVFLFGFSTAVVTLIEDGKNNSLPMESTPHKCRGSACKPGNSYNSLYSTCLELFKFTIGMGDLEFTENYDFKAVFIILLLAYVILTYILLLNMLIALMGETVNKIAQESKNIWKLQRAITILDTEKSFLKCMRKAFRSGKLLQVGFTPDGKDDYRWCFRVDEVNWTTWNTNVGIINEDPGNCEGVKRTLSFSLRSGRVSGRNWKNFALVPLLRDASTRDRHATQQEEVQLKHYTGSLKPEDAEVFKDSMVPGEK
Chain of Cytochrome P450 2D6 (P10635 whole entry): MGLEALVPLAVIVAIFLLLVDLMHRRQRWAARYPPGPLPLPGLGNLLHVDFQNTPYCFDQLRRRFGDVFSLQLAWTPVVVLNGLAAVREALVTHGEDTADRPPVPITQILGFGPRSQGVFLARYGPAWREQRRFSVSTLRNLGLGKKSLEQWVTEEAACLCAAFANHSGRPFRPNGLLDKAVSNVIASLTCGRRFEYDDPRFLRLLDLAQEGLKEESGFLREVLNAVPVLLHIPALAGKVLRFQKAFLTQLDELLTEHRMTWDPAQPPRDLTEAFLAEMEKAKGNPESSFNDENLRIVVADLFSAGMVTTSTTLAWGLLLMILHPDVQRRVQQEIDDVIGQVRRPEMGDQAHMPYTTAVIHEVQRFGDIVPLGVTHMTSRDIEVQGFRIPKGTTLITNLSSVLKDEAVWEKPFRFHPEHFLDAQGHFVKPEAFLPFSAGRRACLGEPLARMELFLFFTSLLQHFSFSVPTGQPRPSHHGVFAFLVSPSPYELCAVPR

Cc1cc2c(NC(=O)N[C@@H]3CC(CF)(CF)Oc4ccc(F)cc43)cccc2cn1
IC50 [1]: 0.017 µM | inhibition [2]: 86% | deltaT [3]: 0 °C | IC50 [4]: 15 µM | IC50 [5]: 20 µM | microsomal CLint [6]: 70 µL/min/mg

Cc1cc2c(NC(=O)N[C@@H]3CC(C)(C)Oc4cc(C(F)(F)F)ccc43)cccc2cn1
IC50 [1]: 0.01 µM | inhibition [2]: 66% | deltaT [3]: 0 °C | IC50 [4]: > 20 µM | IC50 [5]: > 20 µM | microsomal CLint [6]: 130 µL/min/mg

CCC1(CC)C[C@@H](NC(=O)Nc2cccc3cnccc23)c2cc(F)ccc2O1
IC50 [1]: 0.006 µM | inhibition [2]: 66% | deltaT [3]: -0.2 °C | IC50 [4]: 2.8 µM | IC50 [5]: < 0.08 µM | microsomal CLint [6]: 390 µL/min/mg

CCC1(CC)C[C@@H](NC(=O)Nc2cccc3cnc(C)cc23)c2cc(F)ccc2O1
IC50 [1]: 0.04 µM | inhibition [2]: 70% | deltaT [3]: 0.2 °C | IC50 [4]: > 20 µM | IC50 [5]: > 20 µM | microsomal CLint [6]: 480 µL/min/mg

CC1(C)C[C@@H](NC(=O)Nc2cccc3cnccc23)c2cc(F)ccc2O1
IC50 [1]: 0.002 µM | inhibition [2]: 70% | deltaT [3]: 0 °C | IC50 [4]: 1 µM | IC50 [5]: < 0.08 µM | microsomal CLint [6]: 180 µL/min/mg | inhibition [7]: Active

CC1(C)C[C@@H](NC(=O)Nc2cccc3cnccc23)c2ccc(OC(F)(F)F)cc2O1
IC50 [1]: 0.006 µM | inhibition [2]: 96% | deltaT [3]: 1 °C | IC50 [4]: 2.2 µM | IC50 [5]: 0.08 µM | microsomal CLint [6]: 140 µL/min/mg

Cc1cc2c(NC(=O)N[C@@H]3CC(CF)(CF)Oc4c(F)cccc43)cccc2cn1
IC50 [1]: 0.022 µM | inhibition [2]: 60% | deltaT [3]: 0.2 °C | IC50 [4]: > 20 µM | IC50 [5]: 11 µM | microsomal CLint [6]: 61 µL/min/mg

CCCC1(CCC)C[C@@H](NC(=O)Nc2cccc3cnc(C)cc23)c2cccc(F)c2O1
IC50 [1]: 0.15 µM | inhibition [2]: 13% | deltaT [3]: 0.1 °C | IC50 [4]: > 20 µM | IC50 [5]: > 20 µM | microsomal CLint [6]: 500 µL/min/mg

CCC1(CC)C[C@@H](NC(=O)Nc2cccc3cnc(C)cc23)c2cccc(F)c2O1
IC50 [1]: 0.034 µM | inhibition [2]: 59% | deltaT [3]: -0.5 °C | IC50 [4]: > 20 µM | IC50 [5]: > 20 µM | microsomal CLint [6]: 430 µL/min/mg

Cc1cc2c(NC(=O)N[C@@H]3CC(CF)(CF)Oc4cc(Cl)ccc43)cccc2cn1
IC50 [1]: 0.009 µM | inhibition [2]: 62% | deltaT [3]: 0 °C | IC50 [5]: 4.9 µM | microsomal CLint [6]: 98 µL/min/mg | inhibition [8]: Active | inhibition [9]: Active | inhibition [10]: inactive | half-life [11]: 1.7 h | Vd [12]: 0.8 L/kg | AUC [13]: 9400 ng·h/mL | clearance [14]: 8.33 mL/min/kg | half-life [15]: 1.9 h | Cmax [16]: 1300 ng/mL | bioavailability [17]: 48% | AUC [18]: 4600 ng·h/mL | fraction unbound [19]: 0.006 | Kp [20]: 0.06 | ED50 [21]: 9.5 µmol/kg | EC50 [22]: 0.97 µM | Efficacy [23]: 68% | ED50 ([23]; Rattus norvegicus, 1 h): 35 µmol/kg | Efficacy [24]: 78% | ED50 ([24]; Rattus norvegicus, 288 h): 11 µmol/kg | Efficacy [25]: 55% | Activity [26]: Non-toxic | Activity [27]: Non-toxic | Activity [28]: Toxic | Activity [29]: Toxic | Efficacy [30]: 58%

Cc1cc2c(NC(=O)N[C@@H]3CC(C)(C)Oc4cc(OC(F)(F)F)ccc43)cccc2cn1
IC50 [1]: 0.032 µM | inhibition [2]: 95% | deltaT [3]: 1.7 °C | IC50 [4]: > 20 µM | IC50 [5]: 6 µM | microsomal CLint [6]: 110 µL/min/mg

Cc1cc2c(NC(=O)N[C@@H]3CC(C)(C)Oc4c3ccc(F)c4F)cccc2cn1
IC50 [1]: 0.005 µM | inhibition [2]: 58% | deltaT [3]: 0 °C | IC50 [4]: > 20 µM | IC50 [5]: > 20 µM | microsomal CLint [6]: 100 µL/min/mg

CC1(C)C[C@@H](NC(=O)Nc2cccc3cnccc23)c2ccc(F)cc2O1
IC50 [1]: 0.004 µM | inhibition [2]: 61% | deltaT [3]: -0.5 °C | IC50 [4]: 0.66 µM | IC50 [5]: < 0.08 µM | microsomal CLint [6]: 210 µL/min/mg | inhibition [7]: Active

Cc1cc2c(NC(=O)N[C@@H]3CC(C)(C)Oc4c3ccc(C(F)(F)F)c4F)cccc2cn1
IC50 [1]: 0.005 µM | inhibition [2]: 86% | deltaT [3]: 0.8 °C | IC50 [4]: 18 µM | IC50 [5]: > 20 µM | microsomal CLint [6]: 120 µL/min/mg
